# Reference: the supplement of paper PMC12463676, “Small-molecule dissolution of stress granules by redox modulation benefits ALS models” (Nature Chemical Biology, 2025)
# Compound: NC(=O)CCCCC1CCSS1 [lipoamide]
# Assay: thermal stability z-score vs DMSO; higher = more thermally stabilized by treatment
# Details: HeLa; lipoamide concentration 100 µM; arsenate co-treatment: 1 mM arsenate 1 h
# Method: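 Cellular thermal proteome profiling in HeLa cells. Cells were treated with 100 µM lipoamide for 1 h, with or without 1 mM arsenate for a further 1 h, then heated to ten temperatures (37-66.3 °C), and soluble protein was quantified by TMT mass spectrometry relative to 0.1% DMSO controls. The thermal stability score (sum of log2 fold changes minus the abundance score) was transformed to a z-score; mean of n = 3 experiments.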
# 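Note: each temperature applied for 3 min, abundance score taken as mean log2 fold change at the two lowest temperatures, z-score obtained by mean subtraction and division by SD.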
# Sequence of UniProt O15439 (O15439 whole entry): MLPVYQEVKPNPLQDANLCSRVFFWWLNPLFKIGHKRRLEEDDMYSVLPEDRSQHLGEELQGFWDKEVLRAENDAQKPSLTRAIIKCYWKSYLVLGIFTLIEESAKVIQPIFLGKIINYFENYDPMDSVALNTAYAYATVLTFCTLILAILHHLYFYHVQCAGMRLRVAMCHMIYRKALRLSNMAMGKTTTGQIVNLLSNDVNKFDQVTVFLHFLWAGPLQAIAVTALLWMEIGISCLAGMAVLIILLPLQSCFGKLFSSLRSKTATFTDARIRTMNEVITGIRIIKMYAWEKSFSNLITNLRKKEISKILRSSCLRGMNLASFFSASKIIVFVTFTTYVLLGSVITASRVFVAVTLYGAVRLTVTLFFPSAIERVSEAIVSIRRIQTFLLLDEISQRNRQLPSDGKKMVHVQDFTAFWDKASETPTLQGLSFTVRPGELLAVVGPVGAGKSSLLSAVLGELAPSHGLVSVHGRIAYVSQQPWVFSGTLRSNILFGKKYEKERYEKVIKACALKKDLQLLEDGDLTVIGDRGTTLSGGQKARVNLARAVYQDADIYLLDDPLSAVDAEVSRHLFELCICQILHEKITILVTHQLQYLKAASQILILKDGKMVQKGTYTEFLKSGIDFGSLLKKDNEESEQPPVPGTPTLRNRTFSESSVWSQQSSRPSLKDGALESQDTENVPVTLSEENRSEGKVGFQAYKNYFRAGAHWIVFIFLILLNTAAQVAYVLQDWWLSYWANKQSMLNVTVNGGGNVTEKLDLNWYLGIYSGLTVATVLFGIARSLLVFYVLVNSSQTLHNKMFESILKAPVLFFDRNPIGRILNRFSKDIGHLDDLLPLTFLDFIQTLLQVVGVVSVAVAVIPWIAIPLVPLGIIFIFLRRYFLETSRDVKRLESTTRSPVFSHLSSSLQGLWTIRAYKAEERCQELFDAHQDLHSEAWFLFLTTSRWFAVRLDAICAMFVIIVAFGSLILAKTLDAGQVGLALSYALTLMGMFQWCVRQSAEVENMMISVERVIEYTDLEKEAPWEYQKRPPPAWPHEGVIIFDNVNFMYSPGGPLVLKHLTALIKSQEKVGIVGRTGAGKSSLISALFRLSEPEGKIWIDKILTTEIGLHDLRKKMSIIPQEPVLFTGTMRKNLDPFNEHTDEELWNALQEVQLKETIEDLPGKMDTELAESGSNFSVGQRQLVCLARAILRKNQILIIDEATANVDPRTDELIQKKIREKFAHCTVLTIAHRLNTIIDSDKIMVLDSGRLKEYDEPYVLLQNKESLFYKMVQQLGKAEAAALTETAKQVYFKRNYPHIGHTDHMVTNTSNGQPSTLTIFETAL
# Sequence of UniProt P48200 (P48200 whole entry): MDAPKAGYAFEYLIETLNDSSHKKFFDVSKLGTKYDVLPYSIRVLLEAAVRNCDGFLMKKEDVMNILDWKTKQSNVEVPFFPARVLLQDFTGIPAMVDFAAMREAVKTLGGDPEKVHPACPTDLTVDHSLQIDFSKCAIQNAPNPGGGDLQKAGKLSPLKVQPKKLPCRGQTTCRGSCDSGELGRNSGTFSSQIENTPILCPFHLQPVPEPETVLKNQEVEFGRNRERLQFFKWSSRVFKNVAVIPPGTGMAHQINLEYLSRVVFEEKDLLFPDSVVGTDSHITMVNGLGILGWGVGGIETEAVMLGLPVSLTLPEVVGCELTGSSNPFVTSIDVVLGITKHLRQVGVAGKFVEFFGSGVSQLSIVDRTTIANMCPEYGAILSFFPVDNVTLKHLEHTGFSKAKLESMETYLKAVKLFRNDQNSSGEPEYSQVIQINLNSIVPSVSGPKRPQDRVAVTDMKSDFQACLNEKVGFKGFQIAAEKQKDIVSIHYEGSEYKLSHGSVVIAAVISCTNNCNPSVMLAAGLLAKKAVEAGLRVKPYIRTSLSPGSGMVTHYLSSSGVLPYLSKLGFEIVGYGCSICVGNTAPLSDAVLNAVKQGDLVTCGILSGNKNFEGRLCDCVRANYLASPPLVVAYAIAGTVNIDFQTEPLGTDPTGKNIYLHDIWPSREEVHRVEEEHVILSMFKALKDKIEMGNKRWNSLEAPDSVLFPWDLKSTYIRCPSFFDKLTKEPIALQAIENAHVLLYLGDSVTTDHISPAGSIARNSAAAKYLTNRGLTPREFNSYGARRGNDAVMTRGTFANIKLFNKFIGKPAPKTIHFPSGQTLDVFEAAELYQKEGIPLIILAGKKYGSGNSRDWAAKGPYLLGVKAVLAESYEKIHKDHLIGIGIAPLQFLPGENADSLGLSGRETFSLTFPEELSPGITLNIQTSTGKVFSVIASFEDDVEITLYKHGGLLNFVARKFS
# Sequence of UniProt O60566 (O60566 whole entry): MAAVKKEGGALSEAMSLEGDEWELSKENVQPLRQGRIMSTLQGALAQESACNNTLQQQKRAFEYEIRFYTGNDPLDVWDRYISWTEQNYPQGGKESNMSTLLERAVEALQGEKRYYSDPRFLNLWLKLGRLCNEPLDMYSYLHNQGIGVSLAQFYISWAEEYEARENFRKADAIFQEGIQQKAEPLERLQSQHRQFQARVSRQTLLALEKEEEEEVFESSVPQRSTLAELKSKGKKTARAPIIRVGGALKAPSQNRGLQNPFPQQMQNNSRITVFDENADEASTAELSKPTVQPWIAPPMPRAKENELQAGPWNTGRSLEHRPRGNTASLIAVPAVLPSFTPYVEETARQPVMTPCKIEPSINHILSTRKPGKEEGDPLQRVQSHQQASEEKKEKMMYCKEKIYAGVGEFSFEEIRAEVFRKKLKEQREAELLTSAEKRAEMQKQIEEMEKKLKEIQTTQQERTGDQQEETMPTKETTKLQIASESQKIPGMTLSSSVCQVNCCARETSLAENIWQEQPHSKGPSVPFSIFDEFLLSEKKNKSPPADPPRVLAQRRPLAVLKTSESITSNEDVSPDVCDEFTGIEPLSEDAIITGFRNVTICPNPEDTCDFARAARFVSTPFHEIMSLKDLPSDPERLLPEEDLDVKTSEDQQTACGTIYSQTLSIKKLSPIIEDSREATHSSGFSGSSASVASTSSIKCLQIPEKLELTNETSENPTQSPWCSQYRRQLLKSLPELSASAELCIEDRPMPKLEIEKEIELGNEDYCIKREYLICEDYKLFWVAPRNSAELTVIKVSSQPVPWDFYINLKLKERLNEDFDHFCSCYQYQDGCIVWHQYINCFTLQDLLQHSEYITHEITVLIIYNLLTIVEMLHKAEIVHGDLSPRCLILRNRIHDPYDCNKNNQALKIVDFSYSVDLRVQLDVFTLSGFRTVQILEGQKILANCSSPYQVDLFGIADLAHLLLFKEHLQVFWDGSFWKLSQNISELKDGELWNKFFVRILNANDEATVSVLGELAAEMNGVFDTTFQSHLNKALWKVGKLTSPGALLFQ
# Sequence of UniProt P98173 (P98173 whole entry): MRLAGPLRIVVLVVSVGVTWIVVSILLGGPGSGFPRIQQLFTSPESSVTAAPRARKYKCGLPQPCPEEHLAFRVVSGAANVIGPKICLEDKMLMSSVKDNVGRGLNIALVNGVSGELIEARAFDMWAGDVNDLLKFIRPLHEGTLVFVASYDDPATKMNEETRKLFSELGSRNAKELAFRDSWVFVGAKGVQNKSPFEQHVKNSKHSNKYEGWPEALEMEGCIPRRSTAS
# Sequence of UniProt P98196 (P98196 whole entry): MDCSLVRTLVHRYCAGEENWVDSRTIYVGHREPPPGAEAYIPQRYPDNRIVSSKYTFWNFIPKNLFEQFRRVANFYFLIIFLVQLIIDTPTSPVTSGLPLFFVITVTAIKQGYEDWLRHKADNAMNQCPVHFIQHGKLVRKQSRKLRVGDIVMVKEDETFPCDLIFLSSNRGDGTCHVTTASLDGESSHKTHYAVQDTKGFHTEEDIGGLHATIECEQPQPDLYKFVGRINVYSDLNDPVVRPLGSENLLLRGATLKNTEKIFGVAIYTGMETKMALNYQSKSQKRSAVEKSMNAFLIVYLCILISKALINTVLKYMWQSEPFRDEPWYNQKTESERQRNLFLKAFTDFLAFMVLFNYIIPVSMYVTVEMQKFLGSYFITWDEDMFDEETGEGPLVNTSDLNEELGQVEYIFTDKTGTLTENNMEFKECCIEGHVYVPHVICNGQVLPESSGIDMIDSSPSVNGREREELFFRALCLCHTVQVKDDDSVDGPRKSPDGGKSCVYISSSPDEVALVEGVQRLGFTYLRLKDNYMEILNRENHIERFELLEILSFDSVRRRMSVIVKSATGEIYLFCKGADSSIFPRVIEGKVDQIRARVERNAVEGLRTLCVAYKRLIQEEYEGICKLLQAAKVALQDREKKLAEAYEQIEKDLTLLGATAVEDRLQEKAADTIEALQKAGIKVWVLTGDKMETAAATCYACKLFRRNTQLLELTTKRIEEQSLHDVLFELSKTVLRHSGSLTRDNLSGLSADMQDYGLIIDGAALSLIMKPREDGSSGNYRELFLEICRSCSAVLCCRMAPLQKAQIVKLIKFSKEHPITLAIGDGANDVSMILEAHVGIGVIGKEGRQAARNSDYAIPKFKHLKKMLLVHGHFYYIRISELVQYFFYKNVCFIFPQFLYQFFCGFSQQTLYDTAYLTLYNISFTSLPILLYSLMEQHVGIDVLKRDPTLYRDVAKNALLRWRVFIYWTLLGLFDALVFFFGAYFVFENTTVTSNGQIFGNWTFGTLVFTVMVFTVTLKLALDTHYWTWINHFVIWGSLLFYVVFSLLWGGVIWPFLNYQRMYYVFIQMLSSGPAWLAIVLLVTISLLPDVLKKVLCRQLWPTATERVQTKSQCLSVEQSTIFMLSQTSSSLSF
# Sequence of UniProt P46734 (P46734 whole entry): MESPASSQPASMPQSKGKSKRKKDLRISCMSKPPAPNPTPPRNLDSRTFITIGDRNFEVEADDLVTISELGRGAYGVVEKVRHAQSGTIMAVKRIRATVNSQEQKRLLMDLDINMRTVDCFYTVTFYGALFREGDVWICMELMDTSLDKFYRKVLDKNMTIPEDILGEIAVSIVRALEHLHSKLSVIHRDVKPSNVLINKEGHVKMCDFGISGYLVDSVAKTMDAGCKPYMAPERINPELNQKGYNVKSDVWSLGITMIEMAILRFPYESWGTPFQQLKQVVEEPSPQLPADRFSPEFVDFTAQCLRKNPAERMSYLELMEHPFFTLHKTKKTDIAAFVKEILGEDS
row,Target,thermal stability z-score
1,SMYD5 (UniProt Q6GMV2),-0.19
2,FAM3A (UniProt P98173),0.0593
3,GTF3A (UniProt Q92664),-0.654
4,TRIM33 (UniProt Q9UPN9),0.838
5,EXOC3 (UniProt O60645),-0.653
6,WDR7 (UniProt Q9Y4E6),-0.338
7,FRYL (UniProt O94915),-0.0982
8,YTHDC2 (UniProt Q9H6S0),-0.0971
9,TOM1L2 (UniProt Q6ZVM7),-0.00565
10,NSL1 (UniProt Q96IY1),0.254
11,ABCC4 (UniProt O15439),0.622
12,CKAP2 (UniProt Q8WWK9),-0.00358
13,CPSF6 (UniProt Q16630),0.848
14,TMEM205 (UniProt Q6UW68),1.01
15,TDG (UniProt Q13569),-0.0217
16,CLASP1 (UniProt Q7Z460),-0.602
17,RPS15 (UniProt P62841),0.148
18,DHX40 (UniProt Q8IX18),0.111
19,B2M (UniProt P61769),-0.115
20,WDR61 (UniProt Q9GZS3),0.936
21,ISOC1 (UniProt Q96CN7),1.2
22,ARHGEF10 (UniProt O15013),-0.746
23,PIK3C2B (UniProt O00750),0.468
24,USE1 (UniProt Q9NZ43),0.872
25,PFDN5 (UniProt Q99471),1.81
26,PFDN6 (UniProt O15212),1.95
27,SLC39A11 (UniProt Q8N1S5),0.867
28,SLC7A11 (UniProt Q9UPY5),0.242

row,Target,thermal stability z-score
1,TYMS (UniProt P04818),1.42
2,HELB (UniProt Q8NG08),-0.468
3,FAM120B (UniProt Q96EK7),0.0177
4,ATP11A (UniProt P98196),-0.441
5,IREB2 (UniProt P48200),-0.0142
6,SLC25A19 (UniProt Q9HC21),-0.0932
7,NMT1 (UniProt P30419),0.237
8,BUB1B (UniProt O60566),0.0397
9,NUF2 (UniProt Q9BZD4),-0.884
10,UHRF1 (UniProt Q96T88),0.0776
11,TBL1XR1 (UniProt Q9BZK7),1.11
12,UPF3B (UniProt Q9BZI7),-0.0795
13,TRMT5 (UniProt Q32P41),-0.124
14,CCDC167 (UniProt Q9P0B6),-0.711
15,ALG1 (UniProt Q9BT22),-0.337
16,NPC1 (UniProt O15118),-0.389
17,FAM98B (UniProt Q52LJ0),0.052
18,RAB32 (UniProt Q13637),-0.0545
19,STOM (UniProt P27105),-0.123
20,THYN1 (UniProt Q9P016),0.476
21,MAP2K3 (UniProt P46734),-0.4
22,HSD17B12 (UniProt Q53GQ0),0.28
23,SERINC3 (UniProt Q13530),-0.42
24,C12ORF29 (UniProt Q8N999),0.423
25,TBCA (UniProt O75347),0.458
26,PSMB5 (UniProt P28074),0.395
27,ENOSF1 (UniProt Q7L5Y1),-0.0529

# Same assay, conditions: HeLa; lipoamide concentration 100 µM; arsenate co-treatment: none
row,Target,thermal stability z-score
1,SMYD5 (UniProt Q6GMV2),-0.177
2,FAM3A (UniProt P98173),-0.109
3,GTF3A (UniProt Q92664),-0.754
4,TRIM33 (UniProt Q9UPN9),1.24
5,EXOC3 (UniProt O60645),-0.0663
6,WDR7 (UniProt Q9Y4E6),0.149
7,FRYL (UniProt O94915),0.156
8,YTHDC2 (UniProt Q9H6S0),-0.734
9,TOM1L2 (UniProt Q6ZVM7),-0.0362
10,NSL1 (UniProt Q96IY1),-0.0663
11,ABCC4 (UniProt O15439),0.731
12,CKAP2 (UniProt Q8WWK9),0.0789
13,CPSF6 (UniProt Q16630),1.21
14,TMEM205 (UniProt Q6UW68),0.394
15,TDG (UniProt Q13569),-0.0438
16,CLASP1 (UniProt Q7Z460),-0.311
17,RPS15 (UniProt P62841),0.282
18,DHX40 (UniProt Q8IX18),0.0273
19,B2M (UniProt P61769),-0.125
20,WDR61 (UniProt Q9GZS3),0.285
21,ISOC1 (UniProt Q96CN7),1.14
22,ARHGEF10 (UniProt O15013),-0.324
23,PIK3C2B (UniProt O00750),0.832
24,USE1 (UniProt Q9NZ43),0.37
25,PFDN5 (UniProt Q99471),1.27
26,PFDN6 (UniProt O15212),2.18
27,SLC39A11 (UniProt Q8N1S5),0.694
28,SLC7A11 (UniProt Q9UPY5),0.155

row,Target,thermal stability z-score
1,TYMS (UniProt P04818),0.818
2,HELB (UniProt Q8NG08),-0.74
3,FAM120B (UniProt Q96EK7),-0.0542
4,ATP11A (UniProt P98196),0.419
5,IREB2 (UniProt P48200),0.0771
6,SLC25A19 (UniProt Q9HC21),0.281
7,NMT1 (UniProt P30419),-0.0177
8,BUB1B (UniProt O60566),0.232
9,NUF2 (UniProt Q9BZD4),-0.901
10,UHRF1 (UniProt Q96T88),0.0619
11,TBL1XR1 (UniProt Q9BZK7),0.307
12,UPF3B (UniProt Q9BZI7),0.00475
13,TRMT5 (UniProt Q32P41),0.0028
14,CCDC167 (UniProt Q9P0B6),-1.16
15,ALG1 (UniProt Q9BT22),0.0286
16,NPC1 (UniProt O15118),-0.182
17,FAM98B (UniProt Q52LJ0),-0.438
18,RAB32 (UniProt Q13637),-0.0863
19,STOM (UniProt P27105),0.354
20,THYN1 (UniProt Q9P016),0.00625
21,MAP2K3 (UniProt P46734),-0.138
22,HSD17B12 (UniProt Q53GQ0),0.0767
23,SERINC3 (UniProt Q13530),-0.641
24,C12ORF29 (UniProt Q8N999),-0.117
25,TBCA (UniProt O75347),1.12
26,PSMB5 (UniProt P28074),0.222
27,ENOSF1 (UniProt Q7L5Y1),0.0795

# Compound: O=[As]([O-])(O)O.[K+] [potassium arsenate]
# Assay: as above
# Details: HeLa; arsenate concentration 1 mM
# Method: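 Cellular thermal proteome profiling in HeLa cells treated with 1 mM arsenate for 1 h (DMSO pretreatment), heated to ten temperatures (37-66.3 °C). Soluble protein was quantified by TMT mass spectrometry relative to DMSO controls; the thermal stability score was transformed to a z-score; mean of n = 3 experiments.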
row,Target,thermal stability z-score
1,SMYD5 (UniProt Q6GMV2),0.224
2,FAM3A (UniProt P98173),0.363
3,GTF3A (UniProt Q92664),-1.35
4,TRIM33 (UniProt Q9UPN9),-0.3
5,EXOC3 (UniProt O60645),0.149
6,WDR7 (UniProt Q9Y4E6),-0.351
7,FRYL (UniProt O94915),0.161
8,YTHDC2 (UniProt Q9H6S0),-0.0852
9,TOM1L2 (UniProt Q6ZVM7),0.0525
10,NSL1 (UniProt Q96IY1),-0.0597
11,ABCC4 (UniProt O15439),-0.0795
12,CKAP2 (UniProt Q8WWK9),-0.222
13,CPSF6 (UniProt Q16630),0.452
14,TMEM205 (UniProt Q6UW68),1.79
15,TDG (UniProt Q13569),-0.322
16,CLASP1 (UniProt Q7Z460),-0.0658
17,RPS15 (UniProt P62841),-0.957
18,DHX40 (UniProt Q8IX18),-0.0831
19,B2M (UniProt P61769),1.06
20,WDR61 (UniProt Q9GZS3),-0.236
21,ISOC1 (UniProt Q96CN7),8.79
22,ARHGEF10 (UniProt O15013),0.964
23,PIK3C2B (UniProt O00750),0.971
24,USE1 (UniProt Q9NZ43),1.13
25,PFDN5 (UniProt Q99471),1.22
26,PFDN6 (UniProt O15212),1.42
27,SLC39A11 (UniProt Q8N1S5),0.429
28,SLC7A11 (UniProt Q9UPY5),-0.0447

row,Target,thermal stability z-score
1,TYMS (UniProt P04818),14
2,HELB (UniProt Q8NG08),-0.671
3,FAM120B (UniProt Q96EK7),-0.081
4,ATP11A (UniProt P98196),-0.309
5,IREB2 (UniProt P48200),-0.386
6,SLC25A19 (UniProt Q9HC21),-0.374
7,NMT1 (UniProt P30419),1.15
8,BUB1B (UniProt O60566),0.247
9,NUF2 (UniProt Q9BZD4),2.02
10,UHRF1 (UniProt Q96T88),-0.766
11,TBL1XR1 (UniProt Q9BZK7),-0.746
12,UPF3B (UniProt Q9BZI7),0.667
13,TRMT5 (UniProt Q32P41),-0.112
14,CCDC167 (UniProt Q9P0B6),0.0429
15,ALG1 (UniProt Q9BT22),0.115
16,NPC1 (UniProt O15118),0.0121
17,FAM98B (UniProt Q52LJ0),-1.01
18,RAB32 (UniProt Q13637),0.411
19,STOM (UniProt P27105),0.0471
20,THYN1 (UniProt Q9P016),-0.603
21,MAP2K3 (UniProt P46734),0.235
22,HSD17B12 (UniProt Q53GQ0),0.614
23,SERINC3 (UniProt Q13530),-0.788
24,C12ORF29 (UniProt Q8N999),-1.5
25,TBCA (UniProt O75347),0.264
26,PSMB5 (UniProt P28074),0.113
27,ENOSF1 (UniProt Q7L5Y1),-1.01
